The source made the active and inactive calls.
What was measured:
[1] = viability of PTEN-deleted HCT116 cells – cell-based, HCT116 PTEN knockout, dose response (AID 1047); format: functional;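 also: HCT116 colon tumor cells with PTEN knocked out; cells exposed to compound for 60 hours before readout; potency for loss of cell viability measured by luminescence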
[2] = viability of HCT116 lacking mutant beta-catenin – cell-based, human colon tumor, dose response (AID 1045); format: functional;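 also: HCT116 colon tumor cells with beta catenin knocked out; cells exposed to compound for 60 hours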
cells = format: functional
[3] = P. falciparum Dd2 growth inhibitors, dose response, SYBR Green, cherry-picked samples (AID 1159567); format: functional, cell-based
[4] = target: T1, Rac GTPase-activating protein 1 (Homo sapiens, UniProt Q9H0H5); experiment: blockers of MgcRacGAP-driven Rac1 GTP hydrolysis – biochemical, ADP Hunter fluorescence, primary and confirmatory, confirmation (AID 624330); format: functional
T1 sequence (Q9H0H5 whole entry): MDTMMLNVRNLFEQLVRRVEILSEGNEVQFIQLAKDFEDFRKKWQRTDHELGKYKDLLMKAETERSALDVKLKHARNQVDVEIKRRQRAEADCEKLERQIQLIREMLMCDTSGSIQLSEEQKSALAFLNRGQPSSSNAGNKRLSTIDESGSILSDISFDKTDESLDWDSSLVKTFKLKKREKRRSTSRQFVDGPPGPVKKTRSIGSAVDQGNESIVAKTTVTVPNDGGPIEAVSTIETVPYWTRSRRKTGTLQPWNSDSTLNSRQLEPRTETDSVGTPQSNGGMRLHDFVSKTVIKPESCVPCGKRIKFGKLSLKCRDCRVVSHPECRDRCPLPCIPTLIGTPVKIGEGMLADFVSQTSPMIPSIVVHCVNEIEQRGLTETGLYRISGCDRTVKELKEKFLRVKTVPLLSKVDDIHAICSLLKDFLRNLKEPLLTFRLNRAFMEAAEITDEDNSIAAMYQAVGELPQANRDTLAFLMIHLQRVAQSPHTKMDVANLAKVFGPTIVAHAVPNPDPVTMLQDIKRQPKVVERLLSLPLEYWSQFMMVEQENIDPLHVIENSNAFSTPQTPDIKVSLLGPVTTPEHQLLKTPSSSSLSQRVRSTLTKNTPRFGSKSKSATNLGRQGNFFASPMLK

Cytochrome P450 2C19 = Cytochrome P450 2C19 (Homo sapiens, UniProt P33261); experiment: Cytochrome panel assay with activity outcomes. Panel member name: p450-cyp2c19 Compounds with AC50 equal or less than 10 uM are considered active; format: functional; conditions: read-out: AC50
Cytochrome P450 2D6 = Cytochrome P450 2D6 (Homo sapiens, UniProt P10635);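 also: CYP2D6 member of a cytochrome P450 panel assay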
Cytochrome P450 1A2 = target: T2, Cytochrome P450 1A2 (Homo sapiens, UniProt P05177);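 also: PubChem cytochrome P450 panel assay, CYP1A2 panel member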
T2 sequence (P05177 whole entry): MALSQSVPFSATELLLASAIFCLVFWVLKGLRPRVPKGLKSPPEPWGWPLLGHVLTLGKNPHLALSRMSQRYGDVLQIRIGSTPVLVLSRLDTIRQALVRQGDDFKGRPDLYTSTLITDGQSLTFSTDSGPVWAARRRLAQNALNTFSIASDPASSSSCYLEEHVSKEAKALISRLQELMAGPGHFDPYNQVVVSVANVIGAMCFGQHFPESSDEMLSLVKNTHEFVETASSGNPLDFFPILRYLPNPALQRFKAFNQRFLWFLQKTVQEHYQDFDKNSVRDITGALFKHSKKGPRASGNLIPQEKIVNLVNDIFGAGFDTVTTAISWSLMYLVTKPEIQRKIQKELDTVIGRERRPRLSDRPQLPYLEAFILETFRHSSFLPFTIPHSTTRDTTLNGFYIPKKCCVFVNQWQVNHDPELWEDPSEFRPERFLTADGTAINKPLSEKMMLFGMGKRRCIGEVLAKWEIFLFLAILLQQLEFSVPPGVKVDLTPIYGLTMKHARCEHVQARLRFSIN

Cytochrome P450 3A4 = Cytochrome P450 3A4 (Homo sapiens, UniProt P08684);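 also: CYP3A4 tested as one member of a cytochrome P450 panel screen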
Cytochrome P450 2C9 = Cytochrome P450 2C9 (Homo sapiens, UniProt P11712)
[5] = Trypanosoma cruzi growth suppression in host cells – NIH3T3 host cells, beta-gal luminescence, confirmation (AID 2044); format: functional, cell-based;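 also: intracellular parasites grown in NIH/3T3 mouse fibroblasts as host cells; luminescent beta-galactosidase reporter signal from transgenic T. cruzi replicating inside host cells; inhibitors lower the luminescence signal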
[6] = NIH3T3 cell viability loss – ATP luminescence, mouse fibroblasts, counter-screen, dose response (AID 2010); format: functional, cell-based;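 also: cells exposed to compound for about 90 hours before reading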
[7] = target: T3, Corticotropin-releasing factor receptor 2/Corticotropin-releasing factor-binding protein (Homo sapiens, UniProt P24387+Q13324); experiment: Dose Response confirmation of uHTS hits for small molecule antagonists of the CRF-binding protein and CRF-R2 receptor complex.; format: functional; conditions: read-out: IC50_Mean
T3 sequence (Q13324 whole entry): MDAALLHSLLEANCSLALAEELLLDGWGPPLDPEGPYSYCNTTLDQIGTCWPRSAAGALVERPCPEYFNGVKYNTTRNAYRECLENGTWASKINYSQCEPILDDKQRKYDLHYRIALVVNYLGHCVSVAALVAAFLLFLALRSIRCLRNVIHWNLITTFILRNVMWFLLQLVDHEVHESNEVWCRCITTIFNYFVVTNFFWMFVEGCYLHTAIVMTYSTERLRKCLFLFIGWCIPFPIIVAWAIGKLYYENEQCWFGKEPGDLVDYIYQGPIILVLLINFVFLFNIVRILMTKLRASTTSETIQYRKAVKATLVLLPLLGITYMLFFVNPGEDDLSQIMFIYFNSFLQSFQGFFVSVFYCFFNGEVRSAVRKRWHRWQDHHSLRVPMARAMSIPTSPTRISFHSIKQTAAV
T3 sequence (P24387 whole entry): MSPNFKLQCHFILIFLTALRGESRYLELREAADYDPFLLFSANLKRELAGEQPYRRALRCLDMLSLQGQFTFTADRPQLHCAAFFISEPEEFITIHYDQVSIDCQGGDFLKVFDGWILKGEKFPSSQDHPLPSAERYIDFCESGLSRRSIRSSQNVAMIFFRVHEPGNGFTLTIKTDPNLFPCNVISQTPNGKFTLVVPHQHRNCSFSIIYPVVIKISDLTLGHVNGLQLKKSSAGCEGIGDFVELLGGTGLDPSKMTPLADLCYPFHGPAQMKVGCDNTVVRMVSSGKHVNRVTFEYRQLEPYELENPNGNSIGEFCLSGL

[8] = target: T3, Corticotropin-releasing factor receptor 2/Corticotropin-releasing factor-binding protein; experiment: activators of CRF receptor 2 with binding protein – uHTS hits, confirmation (AID 602473); format: functional; conditions: read-out: EC50_Mean
[9] = tested on: Streptococcus sp. 'group A'; experiment: Streptococcus pyogenes SK(-)GAS viability under kanamycin – luminescence, BacTiterGlo, confirmation, counter-screen for streptokinase expression inhibitor project, dose response (AID 1900); format: functional, organism-based
Streptokinase A = target: T4, Streptokinase A (Streptococcus pyogenes serotype M1, UniProt P10520); experiment: viability-normalized secreted streptokinase activity reduction – plasminogen activation absorbance, OD405, dose response (AID 1914); format: functional, Streptococcus pyogenes M1 GAS;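 also: secreted streptokinase activity via plasminogen activation per viability signal from cell pellet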
T4 sequence (P10520 whole entry): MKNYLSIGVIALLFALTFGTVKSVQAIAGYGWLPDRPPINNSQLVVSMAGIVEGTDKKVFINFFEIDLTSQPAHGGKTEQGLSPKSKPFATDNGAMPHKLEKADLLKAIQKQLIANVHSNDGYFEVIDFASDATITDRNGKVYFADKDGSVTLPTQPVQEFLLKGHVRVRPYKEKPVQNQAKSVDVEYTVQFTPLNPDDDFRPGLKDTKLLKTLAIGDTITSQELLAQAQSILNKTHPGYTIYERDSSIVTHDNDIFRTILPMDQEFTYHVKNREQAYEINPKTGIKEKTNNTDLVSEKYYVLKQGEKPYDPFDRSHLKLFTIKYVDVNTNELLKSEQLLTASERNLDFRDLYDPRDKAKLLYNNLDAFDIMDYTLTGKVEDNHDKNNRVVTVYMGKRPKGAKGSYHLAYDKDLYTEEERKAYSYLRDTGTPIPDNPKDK

Streptococcus = experiment: GAS UMAA2166 growth inhibition – luminescence, BacTiterGlo, counter-screen for streptokinase expression inhibitor project, dose response (AID 1915); format: functional, organism-based;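 also: potency for reduction of bacterial viability or growth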

Sequence of Cytochrome P450 2C19 (P33261 whole entry): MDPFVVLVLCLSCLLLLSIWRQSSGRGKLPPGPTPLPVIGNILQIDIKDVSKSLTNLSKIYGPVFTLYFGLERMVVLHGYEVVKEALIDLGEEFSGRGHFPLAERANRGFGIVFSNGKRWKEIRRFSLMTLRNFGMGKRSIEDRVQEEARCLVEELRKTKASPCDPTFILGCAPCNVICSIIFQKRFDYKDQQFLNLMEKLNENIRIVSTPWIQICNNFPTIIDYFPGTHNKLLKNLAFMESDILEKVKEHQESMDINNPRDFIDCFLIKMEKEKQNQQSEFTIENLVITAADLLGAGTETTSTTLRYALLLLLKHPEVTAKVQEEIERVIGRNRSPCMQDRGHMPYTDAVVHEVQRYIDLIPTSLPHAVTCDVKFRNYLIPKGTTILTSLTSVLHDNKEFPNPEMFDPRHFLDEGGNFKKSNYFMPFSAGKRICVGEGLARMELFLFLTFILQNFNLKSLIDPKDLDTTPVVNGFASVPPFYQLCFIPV
Sequence of Cytochrome P450 2C9 (P11712 whole entry): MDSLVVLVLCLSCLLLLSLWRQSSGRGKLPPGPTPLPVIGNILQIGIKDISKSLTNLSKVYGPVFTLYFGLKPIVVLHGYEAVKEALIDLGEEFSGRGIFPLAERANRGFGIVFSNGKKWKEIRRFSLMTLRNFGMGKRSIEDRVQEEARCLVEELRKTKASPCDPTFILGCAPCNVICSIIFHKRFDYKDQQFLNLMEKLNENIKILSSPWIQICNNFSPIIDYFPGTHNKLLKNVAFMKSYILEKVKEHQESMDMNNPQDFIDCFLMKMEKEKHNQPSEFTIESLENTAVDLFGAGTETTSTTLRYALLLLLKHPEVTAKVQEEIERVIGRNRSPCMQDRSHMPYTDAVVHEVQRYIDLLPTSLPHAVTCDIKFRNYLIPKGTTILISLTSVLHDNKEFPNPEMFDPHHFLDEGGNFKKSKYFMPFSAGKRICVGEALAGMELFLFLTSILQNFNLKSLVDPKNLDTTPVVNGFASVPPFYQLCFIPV
Sequence of Cytochrome P450 2D6 (P10635 whole entry): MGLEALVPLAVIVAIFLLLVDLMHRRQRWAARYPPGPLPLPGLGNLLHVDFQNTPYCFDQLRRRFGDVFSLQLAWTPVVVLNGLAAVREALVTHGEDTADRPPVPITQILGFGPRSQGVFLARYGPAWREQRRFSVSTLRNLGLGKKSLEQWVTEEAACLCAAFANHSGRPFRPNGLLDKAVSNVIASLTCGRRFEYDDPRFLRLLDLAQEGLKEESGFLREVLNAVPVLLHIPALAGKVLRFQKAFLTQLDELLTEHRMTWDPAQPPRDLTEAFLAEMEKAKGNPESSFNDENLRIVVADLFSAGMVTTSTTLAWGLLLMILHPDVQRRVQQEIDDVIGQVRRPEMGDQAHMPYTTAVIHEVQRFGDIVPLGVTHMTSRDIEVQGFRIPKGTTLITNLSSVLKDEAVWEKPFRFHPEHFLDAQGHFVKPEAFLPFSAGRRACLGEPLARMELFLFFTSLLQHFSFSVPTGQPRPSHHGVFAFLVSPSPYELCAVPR
Sequence of Cytochrome P450 3A4 (P08684 whole entry): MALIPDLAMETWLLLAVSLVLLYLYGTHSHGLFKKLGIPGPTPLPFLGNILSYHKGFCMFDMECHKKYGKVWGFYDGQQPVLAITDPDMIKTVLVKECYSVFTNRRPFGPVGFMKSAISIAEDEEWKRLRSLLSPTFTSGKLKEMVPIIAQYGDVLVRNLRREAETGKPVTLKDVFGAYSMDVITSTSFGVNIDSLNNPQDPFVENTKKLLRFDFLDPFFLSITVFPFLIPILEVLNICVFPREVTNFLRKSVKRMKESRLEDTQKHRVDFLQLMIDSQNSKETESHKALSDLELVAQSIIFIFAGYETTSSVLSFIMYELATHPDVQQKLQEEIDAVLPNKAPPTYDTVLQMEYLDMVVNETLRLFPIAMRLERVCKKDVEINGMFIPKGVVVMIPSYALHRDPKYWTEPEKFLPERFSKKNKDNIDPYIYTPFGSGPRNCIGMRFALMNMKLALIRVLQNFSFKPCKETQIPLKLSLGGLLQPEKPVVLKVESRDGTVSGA

O=C1/C(=C\c2cccnc2)CCc2ccccc21
EC50 [1]: 15.4 µM (active)
EC50 [2]: 14.5 µM (active)

O=C(Nc1ccccn1)c1ccc(C(=O)c2ccccc2)cc1
IC50 (cells): 32.6 µM (active)

COc1ccccc1NC(=O)N1CCCCN2[C@@H](CO)[C@H](c3ccc(C#CC4CC4)cc3)[C@@H]2C1
AC50 [3]: 5.48 µM (active)

CSCCO/C(O)=C1/Sc2cc(C)ccc2N=C1C
IC50 [4]: 52.9 µM (active)

CN1CCC(O)(c2ccc(Cl)cc2)C(C(=O)c2ccc(Cl)cc2)C1 (centres undefined)
IC50 (cells): 38.5 µM (active)

C[C@@H]1CN([C@H](C)CO)C(=O)c2cc(C#Cc3ccccc3F)cnc2O[C@H]1CN(C)C(=O)c1ccc2c(c1)OCO2
AC50 [3]: 3.31 µM (active)

O=C(OCn1nnc2ccccc2c1=O)C1CCCCC1
IC50 (cells): 6.75 µM (active)

CCOc1c2ccc(C(=O)N[C@H](C)C3CCCCC3)cc2nn1CC
AC50 (Cytochrome P450 2C19): 28.2 µM (inconclusive)
AC50 (Cytochrome P450 2D6): 10 µM (inconclusive)
AC50 (Cytochrome P450 1A2): 12.6 µM (inconclusive)
AC50 (Cytochrome P450 3A4): 25.1 µM (inconclusive)
AC50 (Cytochrome P450 2C9): 14.1 µM (inconclusive)

CCc1sc(N2[C@@H](C#N)[C@@H](c3ccccc3-c3ccccc3)[C@@H]2CO)nc1C
AC50 [3]: 8.33 µM (active)

Cc1ccc(SCCN2CCN(Cc3ccccc3)CC2)cc1
EC50 [5]: 0.549 µM (active)
EC50 [6]: > 60 µM (not active)
IC50 [4]: 84.8 µM (active)

COc1ccc2c3c([nH]c2c1)[C@@H](CO)N(C(=O)c1cccc(F)c1)CC31CCN(C(=O)c2ccccc2)CC1
AC50 [3]: 5.71 µM (active)

COc1ccc(O[C@H]2C=C[C@@H](c3ccccc3)O[C@H]2CO/N=C2/[C@H]3O[C@@H]3[C@@H](O)[C@H]3[C@H]2CCn2c(=O)n(-c4ccccc4)c(=O)n23)cc1
AC50 (Cytochrome P450 2D6): 3.98 µM (inconclusive)
AC50 (Cytochrome P450 2C9): 2 µM (inconclusive)

COc1ccc(/C=N/NC(=O)c2ccncc2)cc1CN1CCOCC1
IC50 (cells): 0.64 µM (active)

CCOC(=O)c1cc(NC(=O)Nc2cc(C)ccn2)c(C)nc1C
IC50 [7]: > 47.1 µM (inactive)
EC50 [8]: > 53 µM (inactive)

CC(=O)C1=C(O)C(=O)N(Cc2ccccc2)C1c1ccc(F)cc1 (centres undefined)
IC50 [7]: > 47.1 µM (inactive)
EC50 [8]: > 53 µM (inactive)

O=C(Nc1ccc(Cl)c(Cl)c1)N1CCC(N2CCCCC2)CC1
AC50 (Cytochrome P450 2C19): 39.8 µM (inconclusive)
AC50 (Cytochrome P450 2D6): 10 µM (inconclusive)
AC50 (Cytochrome P450 3A4): 22.4 µM (inconclusive)

CC(C)(C)NC[C@H](O)c1ccccc1Cl
AC50 (Cytochrome P450 2D6): 31.6 µM (inconclusive)

COc1ccc2oc(C(=O)c3ccccc3)c(NC(=O)CN3CCN(C)CC3)c2c1
EC50 [1]: 15.9 µM (active)
EC50 [2]: 14.1 µM (active)

COCC(C)n1c(C)cc(C(=O)CSc2nnc(Nc3ccccc3F)s2)c1C (centres undefined)
AC50 (Cytochrome P450 2D6): 25.1 µM (inconclusive)
AC50 (Cytochrome P450 1A2): 28.2 µM (inconclusive)

C=CCn1c(SCC(=O)c2c(N)n(C)c(=O)n(C)c2=O)nc2sc(CC)cc2c1=O
EC50 [1]: 26.2 µM (active)
EC50 [2]: 23.3 µM (active)

CC(C)(C)[S@@+]([O-])N1Cc2cc(C(=O)NCCN3CCCC3)nc(-c3cccc(-c4ccc(C#N)cc4)c3)c2[C@H]1CCO
AC50 [3]: 4.66 µM (active)

COc1ccc(CCNCc2cccc(C(F)(F)F)c2)cc1OC
IC50 [4]: 186 µM (active)

O=C(Cn1cc(C(F)(F)F)ccc1=O)N1CCN(S(=O)(=O)c2ccccc2)CC1
AC50 (Cytochrome P450 2C19): 31.6 µM (inconclusive)
AC50 (Cytochrome P450 2D6): 11.2 µM (inconclusive)
AC50 (Cytochrome P450 1A2): 39.8 µM (inconclusive)

SC1=NCN(CCc2ccccc2)CN1Cc1ccccc1
IC50 [7]: > 47.1 µM (inactive)
EC50 [8]: > 53 µM (inactive)

OC(c1ccccc1)(c1ccccc1)C1CCCN1 (centres undefined)
AC50 (Cytochrome P450 2C19): 1.41 µM (inconclusive)
AC50 (Cytochrome P450 2D6): 25.1 µM (inconclusive)

O=C(NCC1CCCO1)C1c2ccccc2C(=O)N1Cc1ccc2c(c1)OCO2 (centres undefined)
AC50 (Cytochrome P450 2D6): 15.8 µM (inconclusive)
AC50 (Cytochrome P450 1A2): 15.8 µM (inconclusive)
AC50 (Cytochrome P450 2C9): 11.2 µM (inconclusive)

CCOc1ccccc1Oc1c[nH]nc1-c1ccc(O)cc1O
IC50 [4]: 35.5 µM (active)

COc1ccc(N2C(=O)/C(=C/N(C)C)NC2=S)cc1
IC50 [4]: 75.4 µM (active)

CCSc1nnc([C@@H](N)Cc2c[nH]c3ccccc23)o1
AC50 (Cytochrome P450 2D6): 12.6 µM (inconclusive)
AC50 (Cytochrome P450 1A2): 17.8 µM (inconclusive)

O=C(N/N=C/c1cccc(OCc2ccccc2)c1)c1cccs1
AC50 (Cytochrome P450 2D6): 25.1 µM (inconclusive)
AC50 (Cytochrome P450 3A4): 20 µM (inconclusive)

COc1cc(/C=N/NC(=O)c2ccccn2)ccc1OC(=O)c1cccs1
IC50 (cells): 10.5 µM (active)

Cc1cc(C)n2nc(CC(=O)NNC(=O)c3ccccc3Cl)nc2n1
IC50 [7]: > 47.1 µM (inactive)
EC50 [8]: > 53 µM (inactive)

OCCOCCN1CCN(C(S)=Nc2ccccc2)CC1
IC50 [7]: > 47.1 µM (inactive)
EC50 [8]: > 53 µM (inactive)

COc1ccc(N2CCN(S(=O)(=O)c3c(C)nc4scc(C)n4c3=O)CC2)cc1
IC50 [4]: 209 µM (active)

ClCCNc1nc2cc(Cl)ccc2[nH]1
AC50 (Cytochrome P450 2C19): 15.8 µM (inconclusive)
AC50 (Cytochrome P450 2D6): 6.31 µM (inconclusive)
AC50 (Cytochrome P450 2C9): 4.47 µM (inconclusive)

O=C(NCCc1csc(-c2ccccc2)n1)c1c(F)cccc1Cl
IC50 [7]: > 47.1 µM (inactive)
EC50 [8]: > 53 µM (inactive)

COc1cc(Nc2c([N+](=O)[O-])nn(-c3ccc4c(c3)OCCO4)[n+]2[O-])cc(OC)c1
EC50 [9]: 2.35 µM (active)
EC50 (Streptokinase A): > 150 µM (not active)
EC50 [1]: 2.29 µM (active)
EC50 [2]: 1.78 µM (active)
EC50 (Streptococcus): 19 µM (active)

From ChEMBL document CHEMBL1201862, “PubChem BioAssay data set” (2004)
